Test results as given in patent publication US20100292279A1, “Bis-(Sulfonylamino) Derivatives in Therapy” (ASTRAZENECA AB, priority 2009, published 2010).

Target: T1, human mPGES-1 (Homo sapiens, UniProt O14684)
T1 construct: host or cells: microsomes
T1 sequence (O14684 1-152): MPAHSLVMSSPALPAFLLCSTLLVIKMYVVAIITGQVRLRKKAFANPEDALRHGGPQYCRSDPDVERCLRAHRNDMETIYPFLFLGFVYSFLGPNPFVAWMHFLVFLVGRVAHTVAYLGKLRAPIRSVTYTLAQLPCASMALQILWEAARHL
Assay: Microsomal prostaglandin E synthase biochemical assay
Conditions: microsome preparation containing human mPGES-1; substrate PGH2 10.8 μM, GSH 2.5 mM, pH 6.8; PGE2 by HTRF; average of at least n=2
Description: Compounds were tested as inhibitors of microsomal prostaglandin E synthase activity in microsomal prostaglandin E synthase assays and whole cell assays. These assays measure prostaglandin E2 (PGE2) synthesis which is taken as a measure of prostaglandin E synthase activity. Microsomal prostaglandin E synthase biochemical assays used microsomal prostaglandin E synthase-1 in microsomal preparations. The source of the microsomes can be for example interleukin-1β-stimulated human A549 cells (which express human mPGES-1) or Sf9 cells transfected with plasmids encoding human mPGES-1 cDNA.
A solution of test compound was added to a diluted microsome preparation containing is human mPGES-1 and pre-incubated for 15 minutes in potassium phosphate buffer pH 6.8 with cofactor glutathione (GSH). Corresponding solutions without test compound were used as positive controls, and corresponding solutions without test compound and without microsomes were used as negative controls. The enzymatic reaction was then started by addition of the substrate PGH2 in an organic solution (dry acetonitrile).
The reaction was stopped after one minute by adding an acidic solution (pH 1.9) of ferric chloride and citrate (final concentrations 7 mM and 47 mM respectively), by which the PGH2 was sequestered (the PGH2 is reduced to mainly 12-hydroxy heptadecatrineoic acid (12-HHT) which is not detected by the subsequent PGE2 detection step). The resulting solution was then pH neutralized by addition of potassium phosphate buffer, prior to diluting an aliquot of the resulting solution in a weak potassium phosphate buffer (50 mM, pH 6.8) containing 0.2% BSA (w/v). […] The PGE2 formed was quantified by use of a commercial HTRF based kit (catalogue #62PG2PEC or #62P2APEC from Cisbio International). 100% activity was defined as the PGE2 production in positive controls subtracted by the PGE2 production in the negative controls. IC50 values were then determined using standard procedures.

| Structure (SMILES) | IC50 |
| --- | --- |
| NS(=O)(=O)c1ccccc1S(=O)(=O)NC(=O)c1ccc(C#Cc2ccccc2)c(OCCC(F)(F)F)c1 [Example 65, 4-(Phenylethynyl)-N-(2-sulfamoylphenylsulfonyl)-3-(3,3,3-trifluoropropoxy)benzamide] | 6.2 nM |
| NS(=O)(=O)c1ccccc1S(=O)(=O)NC(=O)c1ccc(-c2cc3ccccc3o2)c(OCCOCC(F)(F)F)c1 [Example 62, 4-(Benzofuran-2-yl)-N-(2-sulfamoylphenylsulfonyl)-3-(2-(2,2,2-trifluoroethoxy)ethoxy)benzamide] | 9.1 nM |
| CC(C)C#Cc1ccc(C(=O)NS(=O)(=O)c2ccccc2S(N)(=O)=O)cc1OC(F)(F)F [Example 54, 4-(3-Methylbut-1-ynyl)-N-(2-sulfamoylphenylsulfonyl)-3-(trifluoromethoxy)benzamide] | 28 nM |
| CC(C)C#Cc1ncc(C(=O)NS(=O)(=O)c2ccccc2S(N)(=O)=O)cc1OCCC(F)(F)F [Example 49, 6-(3-Methylbut-1-ynyl)-N-(2-sulfamoylphenylsulfonyl)-5-(3,3,3-trifluoropropoxy)nicotinamide] | 13 nM |
| CCCC(C)C#Cc1ccc(C(=O)NS(=O)(=O)c2ccccc2S(N)(=O)=O)cc1 (stereo not shown) [Example 40, 4-(3-Methylhex-1-ynyl)-N-(2-sulfamoylphenylsulfonyl)benzamide] | 14 nM |
| NS(=O)(=O)c1ccccc1S(=O)(=O)NC(=O)c1ccc(C#CC2CCCC2)c(OCCOCC(F)(F)F)c1 [Example 67, 4-(Cyclopentylethynyl)-N-(2-sulfamoylphenylsulfonyl)-3-(2-(2,2,2-trifluoroethoxy)ethoxy)benzamide] | 9.6 nM |
| CC(C)(C)C#Cc1ccc(C(=O)NS(=O)(=O)c2ccccc2S(N)(=O)=O)cc1OCCC(F)(F)F [Example 60, 4-(3,3-Dimethylbut-1-ynyl)-N-(2-sulfamoylphenylsulfonyl)-3-(3,3,3-trifluoropropoxy)benzamide] | 30 nM |
| CC(C)C#Cc1ccc(C(=O)NS(=O)(=O)c2ccccc2S(N)(=O)=O)cc1OCC(F)F [Example 52, 3-(2,2-Difluoroethoxy)-4-(3-methylbut-1-ynyl)-N-(2-sulfamoylphenylsulfonyl)benzamide] | 50 nM |
| CC(C)C#Cc1ccc(C(=O)NS(=O)(=O)c2ccccc2S(N)(=O)=O)cc1OCCOCC(F)(F)F [Example 51, 4-(3-Methylbut-1-ynyl)-N-(2-sulfamoylphenylsulfonyl)-3-(2-(2,2,2-trifluoroethoxy)ethoxy)benzamide] | 26 nM |
| NS(=O)(=O)c1ccccc1S(=O)(=O)NC(=O)c1ccc(C#CC2CCCC2)c(OCCC(F)(F)F)c1 [Example 66, 4-(Cyclopentylethynyl)-N-(2-sulfamoylphenylsulfonyl)-3-(3,3,3-trifluoropropoxy)benzamide] | 9.4 nM |
| COc1cc(C(=O)NS(=O)(=O)c2ccccc2S(N)(=O)=O)ccc1C#Cc1ccc(F)cc1 [Example 16, 4-((4-Fluorophenyl)ethynyl)-3-methoxy-N-(2-sulfamoylphenylsulfonyl)benzamide] | 16 nM |
| CC(C)C#Cc1ccc(C(=O)NS(=O)(=O)c2ccccc2S(N)(=O)=O)cc1OCCC(C)(C)O [Example 25, 3-(3-Hydroxy-3-methylbutoxy)-4-(3-methylbut-1-ynyl)-N-(2-sulfamoylphenylsulfonyl)benzamide] | 130 nM |
| NS(=O)(=O)c1ccccc1S(=O)(=O)NC(=O)c1ccc(C#CC2CCCC2)c(OCC(F)F)c1 [Example 5, 4-(Cyclopentylethynyl)-3-(2,2-difluoroethoxy)-N-(2-sulfamoylphenylsulfonyl)benzamide] | 14 nM |
| NS(=O)(=O)c1ccccc1S(=O)(=O)NC(=O)c1ccc(C#CC2CCCC2)c(OCCC(F)F)c1 [Example 68, 4-(Cyclopentylethynyl)-3-(3,3-difluoropropoxy)-N-(2-sulfamoylphenylsulfonyl)benzamide] | 12 nM |
| NS(=O)(=O)c1ccccc1S(=O)(=O)NC(=O)c1ccc(C#Cc2cccc(F)c2)cc1 [Example 13, 4-((3-Fluorophenyl)ethynyl)-N-(2-sulfamoylphenylsulfonyl)benzamide] | 5.7 nM |
| CC(C)C#Cc1ccc(C(=O)NS(=O)(=O)c2ccccc2S(N)(=O)=O)cc1OC(C)C [Example 26, 3-Isopropoxy-4-(3-methylbut-1-ynyl)-N-(2-sulfamoylphenylsulfonyl)benzamide] | 85 nM |
| Cc1ccc(C#Cc2ccc(C(=O)NS(=O)(=O)c3ccccc3S(N)(=O)=O)cc2OCC(F)F)cc1 [Example 4, 3-(2,2-Difluoroethoxy)-N-(2-sulfamoylphenylsulfonyl)-4-(p-tolylethynyl)benzamide] | 5 nM |
| NS(=O)(=O)c1ccccc1S(=O)(=O)NC(=O)c1ccc(C#Cc2ccc(C(F)(F)F)cc2)nc1 [Example 43] | 6.5 nM |
| CCCC(C)C#Cc1ccc(C(=O)NS(=O)(=O)c2ccccc2S(N)(=O)=O)cc1OCCOCC(F)(F)F (stereo not shown) [Example 34, 4-(3-Methylhex-1-ynyl)-N-(2-sulfamoylphenylsulfonyl)-3-(2-(2,2,2-trifluoroethoxy)ethoxy)benzamide] | 12 nM |
| NS(=O)(=O)c1ccccc1S(=O)(=O)NC(=O)c1ccc(C#Cc2ccccc2)c(OCC(F)F)c1 [Example 3, 3-(2,2-Difluoroethoxy)-4-(phenylethynyl)-N-(2-sulfamoylphenylsulfonyl)benzamide] | 8.2 nM |
| CCCC(C)C#Cc1ccc(C(=O)NS(=O)(=O)c2ccccc2S(N)(=O)=O)cc1OCCC(F)(F)F (stereo not shown) [Example 35, 4-(3-Methylhex-1-ynyl)-N-(2-sulfamoylphenylsulfonyl)-3-(3,3,3-trifluoropropoxy)benzamide] | 14 nM |
| NS(=O)(=O)c1ccccc1S(=O)(=O)NC(=O)c1ccc(OCc2ccccc2)c(OCC2CC2)c1 [Example 1, 4-(Benzyloxy)-3-(cyclopropylmethoxy)-N-(2-sulfamoylphenylsulfonyl)benzamide] | 280 nM |
| CC(C)(C)C#Cc1ccc(C(=O)NS(=O)(=O)c2ccccc2S(N)(=O)=O)cc1OCC(F)F [Example 6, 3-(2,2-Difluoroethoxy)-4-(3,3-dimethylbut-1-ynyl)-N-(2-sulfamoylphenylsulfonyl)benzamide] | 25 nM |
| NS(=O)(=O)c1ccccc1S(=O)(=O)NC(=O)c1ccc(C#CC(O)(C2CC2)C2CC2)cc1 [Example 31, 4-(3,3-Dicyclopropyl-3-hydroxyprop-1-ynyl)-N-(2-sulfamoylphenylsulfonyl)benzamide] | 220 nM |
| COc1cc(C(=O)NS(=O)(=O)c2ccccc2S(N)(=O)=O)ccc1C#Cc1ccccc1C [Example 14, 3-Methoxy-N-(2-sulfamoylphenylsulfonyl)-4-(o-tolylethynyl)benzamide] | 11 nM |
| CC(C)C#Cc1ncc(C(=O)NS(=O)(=O)c2ccccc2S(N)(=O)=O)cc1Cl [Example 44, 5-Chloro-6-(3-methylbut-1-ynyl)-N-(2-sulfamoylphenylsulfonyl)nicotinamide] | 59 nM |
| COc1cc(C(=O)NS(=O)(=O)c2ccccc2S(N)(=O)=O)ccc1OCc1ccc(C)cc1 [Example 29, 3-Methoxy-4-(4-methylbenzyloxy)-N-(2-sulfamoylphenylsulfonyl)benzamide] | 390 nM |
| NS(=O)(=O)c1ccccc1S(=O)(=O)NC(=O)c1ccc(OCc2ccccc2)c(OCCC(F)(F)F)c1 [Example 30, 4-(Benzyloxy)-N-(2-sulfamoylphenylsulfonyl)-3-(3,3,3-trifluoropropoxy)benzamide] | 130 nM |
